What was measured:
mouse acute GVHD model = experiment: Mouse acute GVHD model, IFN-γ concentration in plasma; assay type: in vivo, mouse (BDF1 host, C57BL/6N donor); conditions: for effective dose, suppression of IFN-γ in plasma: oral, twice daily from Day 0, plasma on Day 7, significant relative to the Vehicle group
Method: FIG. 2 is a graph showing the effect of the compound of Example 89 in mouse acute GVHD models. The compound of Example 89 was orally administered at 1.5, 5, 15, or 50 mg/kg, BID. The vertical axis is the concentration of interferon gamma (sometimes abbreviated herein as IFN-γ or IFN-g) in blood on day 7 after elicitation in the model.
Effect of Test Substance in Mouse Acute GVHD Model
A mouse acute graft-versus-host disease (GVHD) model was generated in accordance with a previous report (Puliaev R et al. Differential requirement for IFN-gamma in CTL maturation in acute murine graft-versus-host disease. J Immunol. 173, 910-9 (2004)). Splenocytes were prepared from euthanized donor mice (C57BL/6N), suspended in PBS without hemolysis of erythrocytes, and administered to host mice, BDF1 mice, from the tail vein (the number of transfer cells was adjusted to be 7 to 8×10^7 cells/0.2 mL/mouse in every test, and matched between individuals within the same test). In the Normal group, 0.2 mL of PBS was administered in place of the cells. The test substance was crushed in an agate mortar, and then suspended in a 0.5% hydroxypropyl cellulose (HPC) solution to prepare a dosage solution. In the Vehicle group, 0.5% HPC was used as a dosage solution. To the host mice, the dosage solution was forcibly orally administered (0.2 mL/mouse) twice daily with a feeding needle from the morning of Day 0 (cell transfer) to the end of the experiment. The tail vein was cut without anesthesia on Day 7 and a small amount of blood was collected with a hematocrit tube (EDTA). Plasma was collected by centrifugation and IFN-γ concentration in plasma was measured with an αLISA kit (Mouse IFN-γ alphaLISA, PerkinElimer, AL501C). […] For the difference between the Normal group and the Vehicle group, comparison between two groups was performed by Student's t-test. The difference between the Vehicle group and the test substance administration group was analyzed by a parametric multiple-comparison test, Dunnett test.

NZB/W F1 mice = experiment: Survival of NZB/W F1 mice that naturally develop SLE-like symptoms and nephritis; assay type: in vivo, mouse (NZB/W F1); conditions: oral from the age of 12 weeks; Example 44 at 30, 100 mg/kg BID; MMF 60 mg/kg QD; Vehicle survival rate 35%
Method: FIG. 4 is a graph showing the effect of the compound of Example 44 in NZB/W F1 mice that naturally develop SLE-like symptoms and nephritis. To NZB/W F1 mice, the compound of Example 44 was orally administered at 30, 100 mg/kg, BID, and MMF was orally administered at 60 mg/kg, QD, starting at the age of 12 weeks. The vertical axis indicates the survival rate and the horizontal axis indicates the period. Both of the Vehicle group and the compound of Example 44 administration group was at N=20, and the MMF administration group was at N=15. The surviving days was analyzed by the Kaplan-Meier method, and the group in which the p-value was 0.001 or less compared to the Vehicle group by the log rank test is shown by ***.
Effect of Compound of Example 44 in NZB/W F1 Mice that Naturally Develop SLE-Like Symptoms and Nephritis
To NZB/W F1 mice that naturally develop SLE-like symptoms and nephritis, test substance was forcibly orally administered (0.2 mL/mouse) twice daily with a feeding needle, starting at the age of 12 weeks. The compound of Example 44 was orally administered at 30, 100 mg/kg, BID, and MMF was orally administered at 60 mg/kg, QD. […] Mice were observed daily, and those that reached a dying state such as weight loss and dyspnea were euthanized, and the survival rate was evaluated. The number of survival days was analyzed by the Kaplan-Meier method and the log rank test was performed. […]

mouse chronic GVH model = experiment: Kidney disorder in mouse chronic GVH model, urine protein/creatinine ratio; assay type: in vivo, mouse (BDF1 host, DBA2 donor); conditions: for minimum effective dose / effective dose, urine protein/creatinine ratio: oral, twice daily from Day 4, urine on Day 32, p-value of 0.05 or less relative to the Vehicle group
Method: FIG. 3 is a box plot graph showing the effect of the compound of Example 89 on renal disorder in mouse chronic GVH models. The compound of Example 89 was orally administered at 1.5, 5, 15, or 50 mg/kg, BID, and MMF was orally administered at 30 mg/kg, BID. […] The boxes in the graph represent box plots of the median and the quartile range for each group at N=12. The plots show the values of each individual. Both between the non-elicitation group (Normal group) and the Vehicle group, and between the Vehicle group and the MMF group were compared by the Wilcoxon test (non-parametric, two-group comparison). # means that the p-value is 0.05 or less, and $$ means that the p-value is 0.01 or less, respectively. The Vehicle group and the compound group of Example 89 were analyzed by the Shirley-Williams test (non-parametric, multiple comparisons with dose response). The groups in which the p-value is 0.01 or less and 0.001 or less are shown by ** and ***, respectively.
Effect of Test Substance on Kidney Disorder in Mouse Chronic GVH Model
A mouse chronic graft-versus-host (GVH) model was generated in accordance with a previous report (Via CS. Advances in lupus stemming from the parent-into-F1 model. Trends Immunol. 31, 236-45 (2010)). Splenocytes were prepared from euthanized donor mice (DBA2 mice), suspended in PBS without hemolysis of erythrocytes, and administered to host mice, BDF1 mice, from tail veins (1×10^8 cells/0.2 mL/mouse) at Day 0 and Day 4, twice. In the Normal group, 0.2 mL of PBS was administered in place of the cells. The test substance was crushed in an agate mortar, and then suspended in a 0.5% hydroxypropyl cellulose (HPC) solution to prepare a dosage solution. In the Vehicle group, 0.5% HPC was used as a dosage solution. To the host mice, the dosage solution was forcibly orally administered (0.2 mL/mouse) twice daily with a feeding needle from Day 4 (second cell transfer) to the end of the experiment. Urine was collected on Day 32 under free diet with a metabolic cage. Urine protein concentration was measured with a urine protein test kit (total protein kit microTP test wako, FUJIFILM Wako Pure Chemical Corporation, pyrogallol red method), and urine creatinine concentration was measured using a creatinine test kit (LabAssay™ creatinine, FUJIFILM Wako Pure Chemical Corporation, Jaffe method), and the ratio of urine protein to creatinine was calculated for each individual. […] For the difference between the Normal group and the Vehicle group, the Wilcoxon test (non-parametric, comparison between two groups) was performed, and for the difference between the Vehicle group and the test substance administration group, the analysis was performed by the Shirley-Williams test (non-parametric, multiple comparison with dose response).

Row | SMILES | effective dose, suppression of IFN-γ in plasma (mouse acute GVHD model) | survival until the end of the experiment (age of 44 weeks) (NZB/W F1 mice) | minimum effective dose / effective dose, urine protein/creatinine ratio (mouse chronic GVH model) | effect on IFN-γ in plasma (mouse acute GVHD model; oral 1.5, 5, 15, or 50 mg/kg BID, Day 7) | effect on urine protein/creatinine ratio (mouse chronic GVH model; oral 1.5, 5, 15, or 50 mg/kg BID, Day 32)
1 | CC(OC(=O)N[C@@H](Cc1cccc(S(=O)(=O)N2CC(Oc3ccc(F)cc3)(c3ccccc3)C2)c1)C(=O)O)OC(=O)C(C)(C)C (stereo partly drawn) [Example 44, (2S)-3-(3-((3-(4-Fluorophenoxy)-3-phenylazetidin-1-yl)sulfonyl)phenyl)-2-(((1-(pivaloyloxy)ethoxy)carbonyl)amino)propanoic acid] | ≥ 10 mg/kg, BID | no death was observed |  |  | 
2 | COc1c(C)c2c(c(O)c1C/C=C(\C)CCC(=O)OCCN1CCOCC1)C(=O)OC2 [MMF, mycophenolate mofetil, reference compound] |  | no death was observed |  |  | 
3 | CC(C)C(=O)O[C@@H](C)OC(=O)N[C@@H](Cc1cccc(S(=O)(=O)N2CC(Oc3ccc(F)cc3)(c3ccccc3)C2)c1)C(=O)O [Example 104, (S)-3-(3-((3-(4-Fluorophenoxy)-3-phenylazetidin-1-yl)sulfonyl)phenyl)-2-((((R)-1-(isobutyryloxy)ethoxy)carbonyl)amino)propanoic acid] | ≥ 15 mg/kg, BID |  | 15 mg/kg, BID |  | 
4 | C[C@H](OC(=O)N[C@@H](Cc1cccc(S(=O)(=O)N2CC(Oc3cccc(F)c3)(c3ccccc3)C2)c1)C(=O)O)OC(=O)C(C)(C)C [Example 97] |  |  | 15 mg/kg, BID |  | 
5 | CC(=O)O[C@@H](C)OC(=O)N[C@@H](Cc1cccc(S(=O)(=O)N2CC(Oc3cccc(F)c3)(c3ccccc3)C2)c1)C(=O)O [Example 89, (S)-2-((((R)-1-Acetoxyethoxy)carbonyl)amino)-3-(3-((3-(3-fluorophenoxy)-3-phenylazetidin-1-yl)sulfonyl)phenyl)propanoic acid] | ≥ 1.5 mg/kg, BID |  | 15 mg/kg, BID | inhibited IFN-γ in plasma in a dose-dependent manner | suppressed the urine protein/creatinine ratio in a dose-dependent manner
